According to patent publication US7977120B2, “Fluorescent sensors for cellular amines” (The Curators of the University of Missouri, priority 2005, dated 2011):
Entries after “also recorded” stand apart in the source; their conditions may differ.

How the values were obtained:
[1] = Titration of Sensor Ia with various analytes (UV-vis and fluorescence); type: binding; settings: for Isat/I0 (λex = 446 nm): fluorescence intensity at saturation from theoretical fit to binding isotherm; for Isat/I0 (λex = 484 nm) / Isat/I0 (λex = 495 nm): fluorescence intensity at saturation from theoretical fit; for Kn (association constant): fluorescence spectroscopy, λem = 505 nm, error ± 20%, triplicate titration; for Isat/I0 (λex = 484 nm) / Kn (association constant): λex = 484 nm; for binding affinity for sensor Ia (in words): compared with catecholamines
Procedure: One exemplary coumarin-based sensor, 2-(((5-(7-(diethylamino)-3-formyl-2-oxo-2H-chromen-4-yl)pentyl)(methyl)amino)methyl)phenylboronic acid, sensor Ia, has been examined spectrophotometrically by titration with dopamine under neutral aqueous conditions in which a reducing agent is included to suppress oxidation of the air-sensitive catechol group.
The titration conditions are 10 μM sensor Ia with 100 mM Na2S2O3, 50 mM HEPES, 20 mM NaCl, pH=7.0, and at 37° C. […] See also, Org. Lett. 2004, 6(21), 3727-3730, which is incorporated herein by reference.
Binding constants (Ka) are determined by fluorescence titrations.

[2] = Fluorescence titration of quinolone sensors with ornithine; type: binding; settings: Table 3; for Ka, Ornithine: 1:1 methanol-buffer
Description: (§1) The present invention further discloses that the Quinolone-Dimer Sensors III can also provide detection for diamine analytes. The certain exemplary dimer sensors IIIa-g have been probed spectroscopically by UV-vis and fluorescence titration experiments. […] Moreover, by variation of the linker portion of the sensor III, useful selectivities for different length diamino-analytes have been achieved. First, the absorption spectra show trends similar to those observed with the coumarin sensors in which a large red shift in absorption maximum is observed upon addition of diamines to the sensors. […] As shown in FIG. 11(a), when sensor IIIg is titrated with diaminopropane, a 28 nm shift in absorbance is observed consistent with a shift from aldehyde to iminium ion forms. The red shift in absorption has been attributed to the hydrogen bond between the formed iminium ion and the carbonyl group of the chromophore. In fluorescence mode, by exciting the chromophore at 495 nm, a large increase in fluorescence was observed upon titration with the diamine (FIG. 11(b)).

[3] = UV-vis and fluorescence titration of quinolone sensors with diaminopropane; type: binding; settings: Table 3; for Ka, Diaminopropane: 1:1 methanol-buffer, excitation 495 nm
Description: (§2) The present invention further discloses that the Quinolone-Dimer Sensors III can also provide detection for diamine analytes. The certain exemplary dimer sensors IIIa-g have been probed spectroscopically by UV-vis and fluorescence titration experiments. […] Moreover, by variation of the linker portion of the sensor III, useful selectivities for different length diamino-analytes have been achieved.
(§3) First, the absorption spectra show trends similar to those observed with the coumarin sensors in which a large red shift in absorption maximum is observed upon addition of diamines to the sensors. […] As shown in FIG. 11(a), when sensor IIIg is titrated with diaminopropane, a 28 nm shift in absorbance is observed consistent with a shift from aldehyde to iminium ion forms. The red shift in absorption has been attributed to the hydrogen bond between the formed iminium ion and the carbonyl group of the chromophore. In fluorescence mode, by exciting the chromophore at 495 nm, a large increase in fluorescence was observed upon titration with the diamine (FIG. 11(b)). The fluorescence increase is fitted to a one-site binding isotherm which gave a binding constant of 6700 M^−1 with a maximum fluorescence increase at saturation (Isat/I0) of 6.6-fold.
(§4) Generally, the dimeric sensors were not as soluble as the monomeric derivatives, so binding studies were performed in 1:1 methanol:buffer (10 mM HEPES, pH=7.4). Water solubilizing groups, such as polyethylene groups, can be provided on the quinolone core in a straightforward synthetic manner. Binding constants and maximum fluorescence changes (Isat/I0) are provided in Table 4 for a few representative guests.

[4] = Fluorescence titration of quinolone sensors with diaminopentane; type: binding; settings: Table 3; for Ka, Diaminopentane: 1:1 methanol-buffer
Description: as §1

[5] = Fluorescence titration of quinolone sensors with lysine; type: binding; settings: Table 3; for Ka, Lysine: 1:1 methanol-buffer
Description: as §2, §3, §4

[6] = Relative affinity of dimer sensors across amine guests; type: binding; settings: comparison of guests, Tables 3 and 4
Description: The certain exemplary dimer sensors IIIa-g have been probed spectroscopically by UV-vis and fluorescence titration experiments.
Water solubilizing groups, such as polyethylene groups, can be provided on the quinolone core in a straightforward synthetic manner. Binding constants and maximum fluorescence changes (Isat/I0) are provided in Table 4 for a few representative guests.

[7] = Fluorescence titration of quinolone sensors with diaminobutane; type: binding; settings: Table 3; for Ka, Diaminobutane: 1:1 methanol-buffer
Description: as §1

[8] = Fluorescence titration of quinolone sensors with butylamine; type: binding; settings: Table 3; for Ka, Butylamine: 1:1 methanol-buffer, error ±20%, duplicate titrations; for Isat/I0, Butylamine: maximum change in fluorescence from theoretical fit
[9] = system: bovine adrenal chromaffin cells; experiment: Staining chromaffin cells with the simple monomer IIa (confocal microscopy); type: cell-based; settings: for staining of cells seen by confocal microscopy: 0.5 μM, 15 minutes, 37 C, excitation 488 nm
Procedure: The present invention further provides that the Quinolone-Monomer Sensors II can sense catecholamines and map their movements in a live cell. The initial proof of concept has been carried out by staining chromaffin cells with the simple monomer IIa. Specifically, several sets of chromaffin cells (which contain norepinephrine) were freshly prepared on coverslips and various concentrations of IIa in media were added.
A stock solution of 50 mM in DMSO was diluted in cell culture media to yield a final concentration of 0.5 uM. Cells were incubated in this solution at 37 C for 15 minutes and then the cells were washed with cell culture media without dye and observed using a confocal microscope at room temperature. The excitation wavelength was 488 nm.
Several sets of chromaffin cells (which contain norepinephrine) were freshly prepared on coverslips and various concentrations of 112 in media were added. […] The nuclei are clearly visible as dark regions. […] Given that the sensor should bind equally well to all amines, it is likely that that the sensor is actively accumulating in the vesicles.

Compound | Isat/I0 (λex = 446 nm) [1] | Isat/I0 (λex = 484 nm) [1] | Isat/I0 (λex = 495 nm) [1] | Kn (association constant) [1] | Isat/I0, Lysine [5] | Ka, Lysine [5] | Ka, Butylamine [8] | Isat/I0, Butylamine [8] | also measured
NC(CCC(=O)O)C(=O)O (stereo not drawn) | 0.87 | 7.0 | 25 | 6.8 M⁻¹ | – | – | – | – | –
NCCCCC(N)C(=O)O (stereo not drawn) | 0.75 | 8.0 | 25 | 4.0 M⁻¹ | – | – | – | – | –
NC1C(O)OC(CO)C(O)C1O (stereo not drawn) | 0.55 | 5.9 | 27 | 5.0 M⁻¹ | – | – | – | – | –
CN(C)c1ccc2c(Sc3cccc(Sc4c(C=O)c(=O)n(Cc5ccccc5)c5cc(N(C)C)ccc45)c3)c(C=O)c(=O)n(Cc3ccccc3)c2c1 [Sensor IIId, meta-Benzenedithiol Dimer] | – | – | – | – | 4.7 | 2100 M⁻¹ | 72 M⁻¹ | 8.8 | Isat/I0, Ornithine [2]: 13; Ka, Ornithine [2]: 3300 M⁻¹; Isat/I0, Diaminopropane [3]: 16; Ka, Diaminopropane [3]: 3400 M⁻¹; Isat/I0, Diaminopentane [4]: 15; Ka, Diaminopentane [4]: 1200 M⁻¹; guest selectivity (in words) [6]: preference for ornithine; Isat/I0, Diaminobutane [7]: 15; Ka, Diaminobutane [7]: 1600 M⁻¹
CN(C)c1ccc2c(Sc3ccccc3Sc3c(C=O)c(=O)n(Cc4ccccc4)c4cc(N(C)C)ccc34)c(C=O)c(=O)n(Cc3ccccc3)c2c1 [Sensor IIIe] | – | – | – | – | 10 | 800 M⁻¹ | 30 M⁻¹ | 10 | Isat/I0, Ornithine [2]: 7.3; Ka, Ornithine [2]: 680 M⁻¹; Isat/I0, Diaminopropane [3]: 8.5; Ka, Diaminopropane [3]: 350 M⁻¹; Isat/I0, Diaminopentane [4]: 4.3; Ka, Diaminopentane [4]: 350 M⁻¹; Isat/I0, Diaminobutane [7]: 10; Ka, Diaminobutane [7]: 160 M⁻¹
CN(C)c1ccc2c(SCCCSc3c(C=O)c(=O)n(Cc4ccccc4)c4cc(N(C)C)ccc34)c(C=O)c(=O)n(Cc3ccccc3)c2c1 [Sensor IIIf] | – | – | – | – | 24 | 1460 M⁻¹ | 31 M⁻¹ | 26 | Isat/I0, Ornithine [2]: 22; Ka, Ornithine [2]: 550 M⁻¹; Isat/I0, Diaminopropane [3]: 15; Ka, Diaminopropane [3]: 2100 M⁻¹; Isat/I0, Diaminopentane [4]: 24; Ka, Diaminopentane [4]: 270 M⁻¹; guest selectivity (in words) [6]: the preferred guest in both cases is lysine; Isat/I0, Diaminobutane [7]: 24; Ka, Diaminobutane [7]: 690 M⁻¹
CCSc1c(C=O)c(=O)n(Cc2ccccc2)c2cc(N(C)C)ccc12 [Sensor IIa, 1-benzyl-7-(dimethylamino)-4-(ethylthio)-2-oxo-1,2-dihydroquinoline-3-carbaldehyde] | – | – | – | – | 41 | 129 M⁻¹ | 76 M⁻¹ | 32 | membrane / cell permeability [9]: membrane permeable; staining of cells seen by confocal microscopy [9]: selectively stained; also recorded: punctate staining; staining of cells seen by confocal microscopy ([9]; listed as 112): selectively stained; optimal sensor concentration ([9]; 15 minutes of equilibration time): 0.5 µM
NCCc1ccc(O)cc1 [Tyramine] | 0.41 | 8.0 | 52 | 250 M⁻¹ | – | – | – | – | binding affinity for sensor Ia (in words) [1]: significantly reduced affinity
NCCc1ccc(O)c(O)c1 [dopamine] | 0.50 | 0.60 | – | 3400 M⁻¹ | – | – | – | – | –
CNCC(O)c1ccc(O)c(O)c1 (stereo not drawn) [epinephrine] | 0.73 | 0.76 | 0.77 | 5000 M⁻¹ | – | – | – | – | –
N[C@H]1C(O)O[C@H](CO)[C@@H](O)[C@@H]1O (stereo partly drawn) [glucosamine] | – | – | – | – | – | – | – | – | binding affinity for sensor Ia (in words) [1]: affinity similar to the simple amines
N[C@@H](CCC(=O)O)C(=O)O [glutamate] | – | – | – | – | – | – | – | – | binding affinity for sensor Ia (in words) [1]: low affinity
NCC(O)c1ccc(O)c(O)c1 (stereo not drawn) [norepinephrine] | 0.39 | 0.46 | – | 6500 M⁻¹ | – | – | – | – | –
